Experimental data from patent US11697648B2, “Fused pyrimidine pyridinone compounds as JAK inhibitors” (THERAVANCE BIOPHARMA R&D IP, LLC, priority 2019, dated 2023).

How the values were obtained:
[1] = molecular target: JAK1 (Homo sapiens (Human), UniProt P23458); assay: Biochemical JAK1 kinase assay (LanthaScreen)
In short: (§1)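 GST-JAK + GFP-STAT1 peptide, HEPES pH 7.5/MgCl2/EGTA/Brij-35 buffer; cpd preincubation 1 h RT; ATP start, 1 h RT; stop with 10 mM EDTA + 2 nM Tb-anti-pSTAT1; TR-FRET 520/495. 4-parameter IC50 → pKi (Cheng-Prusoff).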

[2] = test system: IL-2 stimulated STAT5 phosphorylation in Tall-1 human T cell line (JAK3); assay: Cellular JAK3 potency assay: inhibition of IL-2 stimulated pSTAT5 in Tall-1 T cells; type: cell-based; settings: IL-2 stimulated pSTAT5, Tall-1 T cells
In short: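 Tall-1 cells, 45,000 per well, preincubated 1 hour with compound at 37 °C, then stimulated 30 minutes with IL-2 at 300 ng/ml final. pSTAT5 (Tyr694/699) in lysates quantified by AlphaLISA SureFire Ultra. pIC50 derived from inhibition curves, given as mean with SD.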

[3] = molecular target: JAK3 (Homo sapiens (Human), UniProt P52333); assay: Biochemical JAK3 kinase assay (LanthaScreen); settings: for JAK3 (pKi)-JAK1 (pKi): selectivity JAK3 over JAK1, difference of pKi
Chain of JAK3 (P52333 whole entry): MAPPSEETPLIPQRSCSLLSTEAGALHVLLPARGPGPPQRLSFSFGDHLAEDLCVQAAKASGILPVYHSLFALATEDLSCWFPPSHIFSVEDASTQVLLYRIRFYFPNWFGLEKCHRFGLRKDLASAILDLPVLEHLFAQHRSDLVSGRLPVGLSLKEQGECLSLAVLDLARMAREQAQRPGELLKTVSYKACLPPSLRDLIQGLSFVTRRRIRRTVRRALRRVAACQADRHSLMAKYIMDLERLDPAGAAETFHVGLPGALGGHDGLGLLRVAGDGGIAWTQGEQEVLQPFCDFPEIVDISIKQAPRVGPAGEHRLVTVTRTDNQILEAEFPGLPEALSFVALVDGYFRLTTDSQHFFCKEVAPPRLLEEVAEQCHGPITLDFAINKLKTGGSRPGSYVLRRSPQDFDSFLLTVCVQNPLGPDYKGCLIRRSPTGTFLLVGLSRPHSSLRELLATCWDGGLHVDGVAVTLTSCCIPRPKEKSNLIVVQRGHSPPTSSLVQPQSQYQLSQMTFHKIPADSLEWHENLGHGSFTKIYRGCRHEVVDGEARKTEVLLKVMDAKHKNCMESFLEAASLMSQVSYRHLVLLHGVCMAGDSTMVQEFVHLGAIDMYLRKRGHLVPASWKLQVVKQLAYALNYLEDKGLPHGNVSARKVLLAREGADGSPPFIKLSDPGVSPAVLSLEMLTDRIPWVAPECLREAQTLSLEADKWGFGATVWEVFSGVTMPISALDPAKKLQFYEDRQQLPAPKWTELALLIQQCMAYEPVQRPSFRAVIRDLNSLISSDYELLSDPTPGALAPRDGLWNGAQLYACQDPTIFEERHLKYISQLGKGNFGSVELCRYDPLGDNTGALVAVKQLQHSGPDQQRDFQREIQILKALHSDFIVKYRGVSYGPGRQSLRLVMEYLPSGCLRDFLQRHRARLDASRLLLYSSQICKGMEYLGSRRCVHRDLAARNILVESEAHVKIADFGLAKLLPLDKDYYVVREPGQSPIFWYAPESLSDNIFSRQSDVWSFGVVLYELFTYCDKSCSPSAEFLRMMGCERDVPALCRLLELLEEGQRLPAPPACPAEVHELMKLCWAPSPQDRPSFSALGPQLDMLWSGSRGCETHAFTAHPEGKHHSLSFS
In short: as §1

[4] = molecular target: JAK2 (Homo sapiens (Human), UniProt O60674); assay: Biochemical JAK2 kinase assay (LanthaScreen)
Chain of JAK2 (O60674 whole entry): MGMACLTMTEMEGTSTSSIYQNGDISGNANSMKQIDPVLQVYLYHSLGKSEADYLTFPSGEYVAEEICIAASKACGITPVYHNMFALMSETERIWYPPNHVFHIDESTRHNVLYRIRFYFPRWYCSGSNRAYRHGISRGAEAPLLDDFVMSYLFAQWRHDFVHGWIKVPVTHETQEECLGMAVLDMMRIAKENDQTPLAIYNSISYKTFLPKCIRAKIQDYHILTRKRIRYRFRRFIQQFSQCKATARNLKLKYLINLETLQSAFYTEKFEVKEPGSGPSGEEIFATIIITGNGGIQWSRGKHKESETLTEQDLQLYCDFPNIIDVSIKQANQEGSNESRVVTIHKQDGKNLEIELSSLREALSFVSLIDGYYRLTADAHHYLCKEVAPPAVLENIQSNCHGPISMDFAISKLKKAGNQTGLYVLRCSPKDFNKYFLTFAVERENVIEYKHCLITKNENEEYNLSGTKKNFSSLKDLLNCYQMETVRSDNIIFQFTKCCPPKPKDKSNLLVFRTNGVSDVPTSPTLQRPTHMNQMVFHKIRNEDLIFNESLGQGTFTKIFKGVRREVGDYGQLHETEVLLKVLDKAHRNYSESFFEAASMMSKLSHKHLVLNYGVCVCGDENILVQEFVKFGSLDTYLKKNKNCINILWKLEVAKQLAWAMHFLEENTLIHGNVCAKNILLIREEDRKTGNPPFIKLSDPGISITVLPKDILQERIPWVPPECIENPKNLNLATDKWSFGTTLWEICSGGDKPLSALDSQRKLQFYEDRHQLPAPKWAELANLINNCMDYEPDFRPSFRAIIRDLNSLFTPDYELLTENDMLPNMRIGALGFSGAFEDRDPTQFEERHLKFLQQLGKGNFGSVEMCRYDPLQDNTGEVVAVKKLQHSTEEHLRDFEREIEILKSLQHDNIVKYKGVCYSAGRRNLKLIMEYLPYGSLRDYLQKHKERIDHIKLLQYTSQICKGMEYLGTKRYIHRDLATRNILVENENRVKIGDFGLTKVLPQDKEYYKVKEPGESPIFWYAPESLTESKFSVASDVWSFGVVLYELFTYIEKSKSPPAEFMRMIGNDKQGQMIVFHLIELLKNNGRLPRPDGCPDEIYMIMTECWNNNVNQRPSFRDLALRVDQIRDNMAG
Description: (§2) Assay 1: Biochemical JAK and Tyk2 Kinase Assays
(§3) A panel of four LanthaScreen JAK biochemical assays (JAK1, 2, 3 and Tyk2) were carried in a common kinase reaction buffer (50 mM HEPES, pH 7.5, 0.01% Brij-35, 10 mM MgCl2, and 1 mM EGTA). Recombinant GST-tagged JAK enzymes and a GFP-tagged STAT1 peptide substrate were obtained from Life Technologies.
(§4) Serially or discretely diluted compounds were pre-incubated with each of the four JAK enzymes and the substrate in white 384-well microplates (Corning) at ambient temperature for 1 h. ATP was subsequently added to initiate the kinase reactions in 10 μL total volume, with 1% DMSO. […] Kinase reactions were allowed to proceed for 1 hour at ambient temperature before a 10 μL preparation of EDTA (10 mM final concentration) and Tb-anti-pSTAT1 (pTyr701) antibody (Life Technologies, 2 nM final concentration) in TR-FRET dilution buffer (Life Technologies) was added. The plates were allowed to incubate at ambient temperature for 1 h before being read on the EnVision reader (Perkin Elmer). Emission ratio signals (520 nm/495 nm) were recorded and utilized to calculate the percent inhibition values based on DMSO and background controls.
(§5) For dose-response analysis, percent inhibition data were plotted vs. compound concentrations, and IC50 values were determined from a 4-parameter robust fit model with the Prism software (GraphPad Software). Results were expressed as pIC50 (negative logarithm of IC50) and subsequently converted to pKi (negative logarithm of dissociation constant, Ki) using the Cheng-Prusoff equation.

[5] = molecular target: Tyk2 (Homo sapiens (Human), UniProt P29597); assay: Biochemical Tyk2 kinase assay (LanthaScreen)
Chain of Tyk2 (P29597 whole entry): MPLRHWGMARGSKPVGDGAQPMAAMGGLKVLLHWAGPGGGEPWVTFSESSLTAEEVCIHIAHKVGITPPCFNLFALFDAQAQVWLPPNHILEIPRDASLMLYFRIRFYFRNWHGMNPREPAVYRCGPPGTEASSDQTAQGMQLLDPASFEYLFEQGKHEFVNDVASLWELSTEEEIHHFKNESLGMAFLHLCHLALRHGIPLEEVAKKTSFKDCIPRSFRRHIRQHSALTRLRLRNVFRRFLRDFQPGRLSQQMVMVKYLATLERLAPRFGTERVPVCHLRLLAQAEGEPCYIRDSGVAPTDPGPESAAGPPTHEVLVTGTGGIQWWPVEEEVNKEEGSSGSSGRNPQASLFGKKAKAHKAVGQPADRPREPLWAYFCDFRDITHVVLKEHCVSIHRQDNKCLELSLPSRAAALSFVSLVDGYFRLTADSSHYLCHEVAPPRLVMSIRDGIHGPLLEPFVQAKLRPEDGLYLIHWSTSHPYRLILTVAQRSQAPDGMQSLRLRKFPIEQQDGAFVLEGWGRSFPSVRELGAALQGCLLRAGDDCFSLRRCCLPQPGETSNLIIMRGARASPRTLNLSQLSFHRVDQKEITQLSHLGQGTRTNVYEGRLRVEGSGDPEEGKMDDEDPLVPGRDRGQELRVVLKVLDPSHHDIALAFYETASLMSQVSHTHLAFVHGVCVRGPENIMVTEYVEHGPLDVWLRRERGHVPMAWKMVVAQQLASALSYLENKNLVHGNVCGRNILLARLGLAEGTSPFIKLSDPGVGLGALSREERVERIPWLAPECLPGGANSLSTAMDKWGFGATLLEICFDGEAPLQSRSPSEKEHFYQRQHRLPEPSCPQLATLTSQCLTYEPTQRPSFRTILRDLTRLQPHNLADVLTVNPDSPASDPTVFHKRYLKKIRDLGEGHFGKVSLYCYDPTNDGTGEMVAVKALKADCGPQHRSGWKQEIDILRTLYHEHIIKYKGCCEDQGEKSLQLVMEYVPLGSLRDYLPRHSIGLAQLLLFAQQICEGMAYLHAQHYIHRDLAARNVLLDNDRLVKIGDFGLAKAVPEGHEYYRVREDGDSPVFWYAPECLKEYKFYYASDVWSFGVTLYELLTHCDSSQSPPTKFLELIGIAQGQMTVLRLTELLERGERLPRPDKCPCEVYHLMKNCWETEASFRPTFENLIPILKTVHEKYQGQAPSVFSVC
Description: as §2, §3, §4, §5

Chain of JAK1 (P23458 whole entry): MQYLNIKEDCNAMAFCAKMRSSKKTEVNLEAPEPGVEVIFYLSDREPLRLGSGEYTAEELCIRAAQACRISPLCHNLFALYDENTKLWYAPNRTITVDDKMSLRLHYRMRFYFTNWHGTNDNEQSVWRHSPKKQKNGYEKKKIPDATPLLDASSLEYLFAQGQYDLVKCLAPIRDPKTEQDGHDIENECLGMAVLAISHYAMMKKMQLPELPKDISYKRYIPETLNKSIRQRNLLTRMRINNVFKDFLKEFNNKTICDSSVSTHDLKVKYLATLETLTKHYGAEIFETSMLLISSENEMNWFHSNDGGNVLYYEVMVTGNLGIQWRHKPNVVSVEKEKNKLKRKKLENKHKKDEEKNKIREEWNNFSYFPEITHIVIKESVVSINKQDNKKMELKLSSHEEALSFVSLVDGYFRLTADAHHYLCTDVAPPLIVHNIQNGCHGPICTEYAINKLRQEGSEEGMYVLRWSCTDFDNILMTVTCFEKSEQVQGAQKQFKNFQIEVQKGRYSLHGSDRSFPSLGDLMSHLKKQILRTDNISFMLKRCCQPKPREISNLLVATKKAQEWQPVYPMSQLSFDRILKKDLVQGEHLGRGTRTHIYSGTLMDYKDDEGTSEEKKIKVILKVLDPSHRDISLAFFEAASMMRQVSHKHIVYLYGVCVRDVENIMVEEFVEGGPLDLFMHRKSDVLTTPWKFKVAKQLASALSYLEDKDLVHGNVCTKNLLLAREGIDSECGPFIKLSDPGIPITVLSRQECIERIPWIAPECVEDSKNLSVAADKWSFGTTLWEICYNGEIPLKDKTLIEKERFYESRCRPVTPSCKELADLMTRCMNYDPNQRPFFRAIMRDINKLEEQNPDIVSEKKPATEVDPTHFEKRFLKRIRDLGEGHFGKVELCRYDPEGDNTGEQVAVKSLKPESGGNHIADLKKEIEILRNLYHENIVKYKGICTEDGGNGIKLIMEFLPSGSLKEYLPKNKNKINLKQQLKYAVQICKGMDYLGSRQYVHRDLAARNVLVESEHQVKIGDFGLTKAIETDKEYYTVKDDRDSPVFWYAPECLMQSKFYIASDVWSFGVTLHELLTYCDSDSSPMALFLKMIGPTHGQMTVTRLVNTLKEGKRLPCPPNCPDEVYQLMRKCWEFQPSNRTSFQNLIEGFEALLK

## C=CC(=O)N1CC(CCn2c(=O)ccc3cnc(Nc4cnn(CCOCC)c4)nc32)C1 [Example 56]
[1]
  JAK 1 (pKi): E (E represents a pKi value of 7 or below (Ki of 100 nM or above))
[2]
  Tall-1 (pIC50): C (C represents a pIC50 value between 6 and 6.7 (IC50 between 1 μM and 200 nM))
[3]
  JAK 3 (pKi): B (B represents pKi value between 9 and 10 (Ki between 1 nM and 0.1 nM))
  JAK3 (pKi)-JAK1 (pKi): A (A represents a value of 3 or above)
[4]
  JAK 2 (pKi): E (E represents a pKi value of 7 or below (Ki of 100 nM or above))
[5]
  Tyk 2 (pKi): E (E represents a pKi value of 7 or below (Ki of 100 nM or above))

## C=CC(=O)N1CC(CCn2c(=O)ccc3cnc(Nc4cnn(CC(C)(C)O)c4)nc32)C1 [Example 57]
[1]
  JAK 1 (pKi): E (E represents a pKi value of 7 or below (Ki of 100 nM or above))
[2]
  Tall-1 (pIC50): C (C represents a pIC50 value between 6 and 6.7 (IC50 between 1 μM and 200 nM))
[3]
  JAK 3 (pKi): B (B represents pKi value between 9 and 10 (Ki between 1 nM and 0.1 nM))
  JAK3 (pKi)-JAK1 (pKi): A (A represents a value of 3 or above)
[4]
  JAK 2 (pKi): E (E represents a pKi value of 7 or below (Ki of 100 nM or above))
[5]
  Tyk 2 (pKi): E (E represents a pKi value of 7 or below (Ki of 100 nM or above))

## C=CC(=O)N1CC(CCn2c(=O)ccc3cnc(Nc4cnn(C(C)(C)COC)c4)nc32)C1 [Example 58]
[1]
  JAK 1 (pKi): E (E represents a pKi value of 7 or below (Ki of 100 nM or above))
[2]
  Tall-1 (pIC50): B (B represents a pC50 value between 6.7 (included) and 7.5 (IC50 between 200 nM and 32 nM))
[3]
  JAK 3 (pKi): B (B represents pKi value between 9 and 10 (Ki between 1 nM and 0.1 nM))
  JAK3 (pKi)-JAK1 (pKi): A (A represents a value of 3 or above)
[4]
  JAK 2 (pKi): E (E represents a pKi value of 7 or below (Ki of 100 nM or above))
[5]
  Tyk 2 (pKi): E (E represents a pKi value of 7 or below (Ki of 100 nM or above))

## C=CC(=O)N1CC(CCn2c(=O)ccc3cnc(Nc4ccc5[nH]c(=O)oc5c4)nc32)C1 [Example 59]
[1]
  JAK 1 (pKi): E (E represents a pKi value of 7 or below (Ki of 100 nM or above))
[2]
  Tall-1 (pIC50): C (C represents a pIC50 value between 6 and 6.7 (IC50 between 1 μM and 200 nM))
[3]
  JAK 3 (pKi): B (B represents pKi value between 9 and 10 (Ki between 1 nM and 0.1 nM))
  JAK3 (pKi)-JAK1 (pKi): A (A represents a value of 3 or above)
[4]
  JAK 2 (pKi): E (E represents a pKi value of 7 or below (Ki of 100 nM or above))
[5]
  Tyk 2 (pKi): E (E represents a pKi value of 7 or below (Ki of 100 nM or above))

## C=CC(=O)N1CC(CCn2c(=O)ccc3cnc(Nc4cccc(C(=O)N5CCCCC5)c4)nc32)C1 [Example 64]
[1]
  JAK 1 (pKi): E (E represents a pKi value of 7 or below (Ki of 100 nM or above))
[2]
  Tall-1 (pIC50): C (C represents a pIC50 value between 6 and 6.7 (IC50 between 1 μM and 200 nM))
[3]
  JAK 3 (pKi): B (B represents pKi value between 9 and 10 (Ki between 1 nM and 0.1 nM))
  JAK3 (pKi)-JAK1 (pKi): A (A represents a value of 3 or above)
[4]
  JAK 2 (pKi): E (E represents a pKi value of 7 or below (Ki of 100 nM or above))
[5]
  Tyk 2 (pKi): E (E represents a pKi value of 7 or below (Ki of 100 nM or above))

## C=CC(=O)N1CC(CCn2c(=O)ccc3cnc(Nc4cccc(C(=O)N5CCOCC5)c4)nc32)C1 [Example 65]
[1]
  JAK 1 (pKi): E (E represents a pKi value of 7 or below (Ki of 100 nM or above))
[2]
  Tall-1 (pIC50): C (C represents a pIC50 value between 6 and 6.7 (IC50 between 1 μM and 200 nM))
[3]
  JAK 3 (pKi): B (B represents pKi value between 9 and 10 (Ki between 1 nM and 0.1 nM))
  JAK3 (pKi)-JAK1 (pKi): A (A represents a value of 3 or above)
[4]
  JAK 2 (pKi): E (E represents a pKi value of 7 or below (Ki of 100 nM or above))
[5]
  Tyk 2 (pKi): E (E represents a pKi value of 7 or below (Ki of 100 nM or above))

## C=CC(=O)N1CC(CCn2c(=O)ccc3cnc(Nc4cccc(N5CCCCC5)c4)nc32)C1 [Example 68]
[1]
  JAK 1 (pKi): E (E represents a pKi value of 7 or below (Ki of 100 nM or above))
[2]
  Tall-1 (pIC50): C (C represents a pIC50 value between 6 and 6.7 (IC50 between 1 μM and 200 nM))
[3]
  JAK 3 (pKi): B (B represents pKi value between 9 and 10 (Ki between 1 nM and 0.1 nM))
  JAK3 (pKi)-JAK1 (pKi): A (A represents a value of 3 or above)
[4]
  JAK 2 (pKi): E (E represents a pKi value of 7 or below (Ki of 100 nM or above))
[5]
  Tyk 2 (pKi): E (E represents a pKi value of 7 or below (Ki of 100 nM or above))

## C=CC(=O)N1CC(CCn2c(=O)ccc3cnc(Nc4ccc(-n5ccnc5)cc4)nc32)C1 [Example 73]
[1]
  JAK 1 (pKi): E (E represents a pKi value of 7 or below (Ki of 100 nM or above))
[2]
  Tall-1 (pIC50): C (C represents a pIC50 value between 6 and 6.7 (IC50 between 1 μM and 200 nM))
[3]
  JAK 3 (pKi): C (C represents a pKi value between 8 and 9 (Ki between 10 nM and 1 nM))
  JAK3 (pKi)-JAK1 (pKi): B (B represents a value of 2.5 to 3)
[4]
  JAK 2 (pKi): E (E represents a pKi value of 7 or below (Ki of 100 nM or above))
[5]
  Tyk 2 (pKi): E (E represents a pKi value of 7 or below (Ki of 100 nM or above))

## C=CC(=O)N1CC(CCn2c(=O)ccc3cnc(Nc4ccc(N5CCN(C(=O)C(C)C)CC5)cc4)nc32)C1 [Example 75]
[1]
  JAK 1 (pKi): E (E represents a pKi value of 7 or below (Ki of 100 nM or above))
[2]
  Tall-1 (pIC50): C (C represents a pIC50 value between 6 and 6.7 (IC50 between 1 μM and 200 nM))
[3]
  JAK 3 (pKi): C (C represents a pKi value between 8 and 9 (Ki between 10 nM and 1 nM))
  JAK3 (pKi)-JAK1 (pKi): B (B represents a value of 2.5 to 3)
[4]
  JAK 2 (pKi): E (E represents a pKi value of 7 or below (Ki of 100 nM or above))
[5]
  Tyk 2 (pKi): E (E represents a pKi value of 7 or below (Ki of 100 nM or above))

## C=CC(=O)N1CC(CCn2c(=O)ccc3cnc(Nc4ccc5[nH]cnc5c4)nc32)C1 [Example 84]
[1]
  JAK 1 (pKi): E (E represents a pKi value of 7 or below (Ki of 100 nM or above))
[2]
  Tall-1 (pIC50): C (C represents a pIC50 value between 6 and 6.7 (IC50 between 1 μM and 200 nM))
[3]
  JAK 3 (pKi): B (B represents pKi value between 9 and 10 (Ki between 1 nM and 0.1 nM))
  JAK3 (pKi)-JAK1 (pKi): A (A represents a value of 3 or above)
[4]
  JAK 2 (pKi): E (E represents a pKi value of 7 or below (Ki of 100 nM or above))
[5]
  Tyk 2 (pKi): E (E represents a pKi value of 7 or below (Ki of 100 nM or above))

## C=CC(=O)N1CCN(CCn2c(=O)ccc3cnc(Nc4ccc(C5CCN(C)CC5)cc4)nc32)CC1 [Example 87]
[1]
  JAK 1 (pKi): E (E represents a pKi value of 7 or below (Ki of 100 nM or above))
[2]
  Tall-1 (pIC50): A (A represents a pIC50 value≥7.5 (IC50≤32 nM))
[3]
  JAK 3 (pKi): B (B represents pKi value between 9 and 10 (Ki between 1 nM and 0.1 nM))
  JAK3 (pKi)-JAK1 (pKi): A (A represents a value of 3 or above)
[4]
  JAK 2 (pKi): E (E represents a pKi value of 7 or below (Ki of 100 nM or above))
[5]
  Tyk 2 (pKi): E (E represents a pKi value of 7 or below (Ki of 100 nM or above))

## C=CC(=O)N1CC(CCn2c(=O)ccc3cnc(Nc4ccc(N5CCN(C(=O)NC)CC5)cc4)nc32)C1 [Example 93]
[1]
  JAK 1 (pKi): E (E represents a pKi value of 7 or below (Ki of 100 nM or above))
[2]
  Tall-1 (pIC50): B (B represents a pC50 value between 6.7 (included) and 7.5 (IC50 between 200 nM and 32 nM))
[3]
  JAK 3 (pKi): A (A represents a pKi value≥10 (Ki≤0.1 nM))
  JAK3 (pKi)-JAK1 (pKi): A (A represents a value of 3 or above)
[4]
  JAK 2 (pKi): E (E represents a pKi value of 7 or below (Ki of 100 nM or above))
[5]
  Tyk 2 (pKi): E (E represents a pKi value of 7 or below (Ki of 100 nM or above))
